For series [1], the target named is T1, beta-catenin/TCF4 engagement (Homo sapiens, UniProt P35222).
T1 construct: expressed in transfected cells; host or cells: HEK293
T1 sequence (P35222 1-781): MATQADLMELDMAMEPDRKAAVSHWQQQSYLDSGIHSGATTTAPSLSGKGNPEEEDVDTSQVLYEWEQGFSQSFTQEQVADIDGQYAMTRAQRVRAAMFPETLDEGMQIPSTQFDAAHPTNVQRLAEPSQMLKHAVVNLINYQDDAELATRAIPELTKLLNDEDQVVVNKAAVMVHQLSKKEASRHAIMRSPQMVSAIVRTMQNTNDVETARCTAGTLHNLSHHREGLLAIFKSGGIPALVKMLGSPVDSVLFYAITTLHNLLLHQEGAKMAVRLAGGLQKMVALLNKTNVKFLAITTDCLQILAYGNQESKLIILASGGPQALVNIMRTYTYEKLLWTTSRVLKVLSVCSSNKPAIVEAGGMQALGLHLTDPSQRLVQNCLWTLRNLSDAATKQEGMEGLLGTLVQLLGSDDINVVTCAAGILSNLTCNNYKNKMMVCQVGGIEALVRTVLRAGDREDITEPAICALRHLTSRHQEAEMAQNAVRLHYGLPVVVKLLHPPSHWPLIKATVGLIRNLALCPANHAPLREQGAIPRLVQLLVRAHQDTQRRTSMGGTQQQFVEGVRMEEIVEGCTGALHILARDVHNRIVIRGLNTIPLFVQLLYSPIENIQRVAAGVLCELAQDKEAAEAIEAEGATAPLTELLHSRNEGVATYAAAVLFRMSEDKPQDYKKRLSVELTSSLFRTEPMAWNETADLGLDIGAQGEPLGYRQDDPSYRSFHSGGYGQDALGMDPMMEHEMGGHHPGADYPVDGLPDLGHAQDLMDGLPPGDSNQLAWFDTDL
Kind of series: Nano-BRET target engagement assay (B-cat-Halo & TCF4-Luc in HEK293 cells). It counts as cell-based. The following applies: for inhibition at 10 µM: HEK293, @ 10 uM, read-out: NanoBRET % inh @ 10 uM. In general terms: In BRET a luciferase serves as donor, and the signal depends on an acceptor being close.

A short description of a further series: CHI Log D procedure. The following applies: pH 7.4, CHI Log D. It is filed as physicochemical.
The next series is described as follows: Solubility in PBS. It counts as physicochemical. The method in brief: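 HPLC quantitation of peptide remaining in the PBS supernatant after ultracentrifugation, referenced to a 50 μM solution in DMSO.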
Series [2] has as its target T2, full-length beta-Catenin (Uniprot ID P35222) (Homo sapiens, UniProt P35222).
T2 construct: 10 nM full-length beta-Catenin (Uniprot ID P35222)
T2 sequence (P35222 1-781): T1 sequence (P35222 1-781)
The series can be described thus: Fluorescence polarization IC50 (beta-catenin / 5FAM-TCF4 10-53 competition). It is filed as binding. The note with it: read-out: beta-Catenin FP IC50. (In general: Fluorescence polarisation rises when a labelled molecule tumbles more slowly, as on binding a larger partner.)

SMILES strings stand for the structures. ≈ marks a conversion by molar mass, not a printed value. Read-outs that look alike come from different tables or passages of the source. Bounds are passed on as bounds.

One may read the IC50 as the point on the concentration scale where inhibition reaches its midpoint. What is called chromatographic logD is a lipophilicity value derived from retention on a column. A low value points to a more hydrophilic compound. A word on the Solubility: it is the dissolved amount per volume that the medium holds. For `CC(=O)N1CCC[C@]12CC=CCCCC1(CCCC=CCCCOC(=O)N3CC[C@@](C(=O)N[C@@H](Cc4ccsc4)C(=O)N[C@@H](Cc4csc5ccccc45)C(N)=O)(C3)NC(=O)[C@H](CC(N)=O)NC(=O)[C@H](Cc3ccccc3)NC(=O)[C@H](C)NC(=O)[C@H](C)NC(=O)[C@H](CC(=O)O)NC(=O)[C@H](CC(=O)O)NC1=O)NC(=O)[C@H](CC(C)(C)C)NC(=O)[C@H](CC(=O)O)NC2=O` (stereo partly drawn) [I-785, Ac-PL3-Asp-Npg-B5-Asp-Asp-Ala-Ala-Phe-Asn-PyrS2-3Thi-BztA-NH2], in series [1], the inhibition at 10 µM was found to be 31%. The IC50 came out at 21600 nM in series [1] (read-out: NanoBRET Abs IC50) and 6 nM in series [2]. This compound also showed a chromatographic logD in the series “CHI Log D procedure” of 2.28. In “Solubility in PBS” (Solubility (uM)), this compound registered a Solubility of 42 µM (≈ 75.2 µg/mL).

On to `CC(=O)N1CCC[C@]12CC=CCCCC1(CCCC=CCCCOC(=O)N3CC[C@@](C(=O)N[C@@H](Cc4ccsc4)C(=O)N[C@@H](Cc4csc5ccccc45)C(N)=O)(C3)NC(=O)[C@H](CC(N)=O)NC(=O)[C@H](Cc3ccccc3)NC(=O)[C@H](C)NC(=O)[C@H](C)NC(=O)[C@H](CCC(=O)O)NC(=O)[C@H](CC(=O)O)NC1=O)NC(=O)[C@H](CC(C)(C)C)NC(=O)[C@H](CC(=O)O)NC2=O` (stereo partly drawn) [I-786, Ac-PL3-Asp-Npg-B5-Asp-Glu-Ala-Ala-Phe-Asn-PyrS2-3Thi-BztA-NH2], for which the IC50 stood at 29300 nM in series [1] (read-out: NanoBRET Abs IC50), 17100 nM in series [1] (read-out: NanoBRET IC50) and 8 nM in series [2]. For the same compound, in “CHI Log D procedure”, the chromatographic logD was 2.3. For the same compound, the concentration in solution in the series “Solubility in PBS” (Solubility (uM)) (Solubility) was 39 µM (≈ 70.4 µg/mL).

Turning to `CC(=O)N1CCC[C@]12CC=CCCCC1(CCCC=CCCCOC(=O)N3CC[C@@](C(=O)N[C@@H](Cc4ccsc4)C(=O)N[C@@H](Cc4csc5ccccc45)C(=O)N[C@@H](Cc4c[nH]cn4)C(N)=O)(C3)NC(=O)[C@H](CC(N)=O)NC(=O)[C@H](Cc3ccccc3)NC(=O)[C@H](C)NC(=O)[C@H](C)NC(=O)[C@H](CC(=O)O)NC(=O)[C@H](CC(=O)O)NC1=O)NC(=O)[C@H](CCC(C)C)NC(=O)[C@H](CC(=O)O)NC2=O` (stereo partly drawn) [I-788, Ac-PL3-Asp-hLeu-B5-Asp-Asp-Ala-Ala-Phe-Asn-PyrS2-3Thi-BztA-His-NH2], the IC50 in series [1] (read-out: NanoBRET Abs IC50) is 21600 nM; in series [2], 5 nM. Besides, in the series “CHI Log D procedure”, the chromatographic logD is 2.17. The same compound yielded a Solubility in the series “Solubility in PBS” (Solubility (uM)) of 31 µM (≈ 59.7 µg/mL).

For the compound `CC(=O)N1CCC[C@]12CC=CCCCC1(CCCC=CCCCOC(=O)N3CC[C@@](C(=O)N[C@@H](Cc4ccsc4)C(=O)N[C@@H](Cc4cccc5ccccc45)C(=O)N[C@@H](Cc4c[nH]cn4)C(N)=O)(C3)NC(=O)[C@H](CC(N)=O)NC(=O)[C@H](Cc3ccccc3)NC(=O)[C@H](C)NC(=O)[C@H](C)NC(=O)[C@H](CC(=O)O)NC(=O)[C@H](CC(=O)O)NC1=O)NC(=O)[C@H](CC(C)(C)C)NC(=O)[C@H](CC(=O)O)NC2=O` (stereo partly drawn) [I-789, Ac-PL3-Asp-Npg-B5-Asp-Asp-Ala-Ala-Phe-Asn-PyrS2-3Thi-1NapA-His-NH2], the inhibition at 10 µM in series [1] came to 9.7%. Also, the figures for the concentration for half-maximal inhibition (IC50) in series [1] (read-out: NanoBRET Abs IC50) and in series [2] were greater than 20000 nM and 19 nM, respectively. The chromatographic logD in the series “CHI Log D procedure” was determined as 2.08. The “Solubility” value in the series “Solubility in PBS” turned out to be 50 µM (≈ 96.1 µg/mL).

Regarding `CC(=O)N1CCC[C@]12CC=CCCCC1(CCCC=CCCCOC(=O)N3CC[C@@](C(=O)N[C@@H](Cc4ccsc4)C(=O)N[C@@H](Cc4ccc5ccccc5c4)C(=O)N[C@@H](Cc4c[nH]cn4)C(N)=O)(C3)NC(=O)[C@H](CC(N)=O)NC(=O)[C@H](Cc3ccccc3)NC(=O)[C@H](C)NC(=O)[C@H](C)NC(=O)[C@H](CC(=O)O)NC(=O)[C@H](CC(=O)O)NC1=O)NC(=O)[C@H](CC(C)(C)C)NC(=O)[C@H](CC(=O)O)NC2=O` (stereo partly drawn) [I-790, Ac-PL3-Asp-Npg-B5-Asp-Asp-Ala-Ala-Phe-Asn-PyrS2-3Thi-2NapA-His-NH2], the IC50 in series [1] (read-out: NanoBRET Abs IC50) was greater than 20000 nM; in series [2], 24 nM. Further, in “CHI Log D procedure”, the chromatographic logD was 2.12. For the same compound, the “Solubility” value in the series “Solubility in PBS” was found to be 50 µM (≈ 96.1 µg/mL).

As for `CC(=O)N1CCC[C@]12CC=CCCCC1(CCCC=CCCCOC(=O)N3CC[C@@](C(=O)N[C@@H](Cc4ccsc4)C(=O)N[C@@H](Cc4c[nH]c5ccccc45)C(=O)N[C@@H](Cc4c[nH]cn4)C(N)=O)(C3)NC(=O)[C@H](CC(N)=O)NC(=O)[C@H](Cc3ccccc3)NC(=O)[C@H](C)NC(=O)[C@H](C)NC(=O)[C@H](CC(=O)O)NC(=O)[C@H](CC(=O)O)NC1=O)NC(=O)[C@H](CC(C)(C)C)NC(=O)[C@H](CC(=O)O)NC2=O` (stereo partly drawn) [I-792, Ac-PL3-Asp-Npg-B5-Asp-Asp-Ala-Ala-Phe-Asn-PyrS2-3Thi-Trp-His-NH2], the IC50 is greater than 20000 nM in series [1] (read-out: NanoBRET Abs IC50) and 20 nM in series [2]. Moreover, the chromatographic logD in the series “CHI Log D procedure” turned out to be 1.96. The Solubility in the series “Solubility in PBS” (Solubility (uM)) came to 33 µM (≈ 63 µg/mL).

In the case of `CC(=O)N1CCC[C@]12CC=CCCCC1(CCCC=CCCCOC(=O)N3CC[C@@](C(=O)N[C@@H](Cc4csc5ccccc45)C(=O)N[C@@H](Cc4csc5ccccc45)C(=O)N[C@@H](Cc4c[nH]cn4)C(N)=O)(C3)NC(=O)[C@H](CC(N)=O)NC(=O)[C@H](Cc3ccccc3)NC(=O)[C@H](C)NC(=O)[C@H](C)NC(=O)[C@H](CC(=O)O)NC(=O)[C@H](CC(=O)O)NC1=O)NC(=O)[C@H](CC(C)(C)C)NC(=O)[C@H](CC(=O)O)NC2=O` (stereo partly drawn) [I-793, Ac-PL3-Asp-Npg-B5-Asp-Asp-Ala-Ala-Phe-Asn-PyrS2-BztA-BztA-His-NH2], the IC50 in series [1] (read-out: NanoBRET Abs IC50) was greater than 20000 nM; in series [2], 14 nM. This compound came in with a chromatographic logD in the series “CHI Log D procedure” of 2.39. Further, the “Solubility” value in the series “Solubility in PBS” came to 10 µM (≈ 19.8 µg/mL).

Take `CC(=O)N1CCC[C@]12CC=CCCCC1(CCCC=CCCCOC(=O)N3CC[C@@](C(=O)N[C@@H](Cc4cccc5ccccc45)C(=O)N[C@@H](Cc4csc5ccccc45)C(=O)N[C@@H](Cc4c[nH]cn4)C(N)=O)(C3)NC(=O)[C@H](CC(N)=O)NC(=O)[C@H](Cc3ccccc3)NC(=O)[C@H](C)NC(=O)[C@H](C)NC(=O)[C@H](CC(=O)O)NC(=O)[C@H](CC(=O)O)NC1=O)NC(=O)[C@H](CC(C)(C)C)NC(=O)[C@H](CC(=O)O)NC2=O` (stereo partly drawn) [I-794, Ac-PL3-Asp-Npg-B5-Asp-Asp-Ala-Ala-Phe-Asn-PyrS2-1NapA-BztA-His-NH2]: the IC50 in series [1] (read-out: NanoBRET Abs IC50) worked out at 26400 nM; in series [2], 19 nM. Further, the chromatographic logD in the series “CHI Log D procedure” was determined as 2.38. The Solubility in the series “Solubility in PBS” (Solubility (uM)) worked out at 40 µM (≈ 78.8 µg/mL).

As for `CC(=O)N1CCC[C@]12CC=CCCCC1(CCCC=CCCCOC(=O)N3CC[C@@](C(=O)N[C@@H](Cc4ccsc4)C(=O)N[C@@H](Cc4csc5ccccc45)C(=O)N[C@@H](Cc4c[nH]cn4)C(N)=O)(C3)NC(=O)[C@H](CC(C)C)NC(=O)[C@H](Cc3ccccc3)NC(=O)[C@H](C)NC(=O)[C@H](C)NC(=O)[C@H](CC(=O)O)NC(=O)[C@H](CC(=O)O)NC1=O)NC(=O)[C@H](CC(C)(C)C)NC(=O)[C@H](CC(=O)O)NC2=O` (stereo partly drawn) [I-802, Ac-PL3-Asp-Npg-B5-Asp-Asp-Ala-Ala-Phe-Leu-PyrS2-3Thi-BztA-His-NH2], the IC50 was 4800 nM in series [1] (read-out: NanoBRET Abs IC50) and 6 nM in series [2]. In the series “CHI Log D procedure”, this compound yielded a chromatographic logD of 2.3. Further, the “Solubility” value in “Solubility in PBS” amounted to 10 µM (≈ 19.3 µg/mL).

`CC(=O)N1CCC[C@]12CC=CCCCC1(CCCC=CCCCOC(=O)N3CC[C@@](C(=O)N[C@@H](Cc4ccsc4)C(=O)N[C@@H](Cc4csc5ccccc45)C(=O)N[C@@H](Cc4c[nH]cn4)C(N)=O)(C3)NC(=O)[C@H](CCO)NC(=O)[C@H](Cc3ccccc3)NC(=O)[C@H](C)NC(=O)[C@H](C)NC(=O)[C@H](CC(=O)O)NC(=O)[C@H](CC(=O)O)NC1=O)NC(=O)[C@H](CC(C)(C)C)NC(=O)[C@H](CC(=O)O)NC2=O` (stereo partly drawn) [I-804, Ac-PL3-Asp-Npg-B5-Asp-Asp-Ala-Ala-Phe-Hse-PyrS2-3Thi-BztA-His-NH2]: the IC50 in series [1] (read-out: NanoBRET Abs IC50) came out at 13500 nM; in series [2], 5 nM. In the series “CHI Log D procedure”, this compound gave a chromatographic logD of 2.11. Further, in “Solubility in PBS” (Solubility (uM)), the Solubility is 44 µM (≈ 84.2 µg/mL).

These data come from patent US20240116985A1, “STAPLED PEPTIDES AND METHODS THEREOF” (priority 2020, published 2024).
